From US6723751B1, “Crystalline forms of the sodium salt of 5-chloro-2-methoxy-N-(2-(4-methoxy-3-methylaminothiocarbonylaminosulfonylpenyl)ethyl)benzamide” (Aventis Pharma Deutschland GmbH, priority 1999, dated 2004)
Each block holds one compound with its values, some of them ahead of it.

Assays:
[1] = Hygroscopicity investigations: water vapor sorption (DVS-1 Dynamic Vapour Sorption Analyser); format: physicochemical; details: 25° C., equilibrium
Method: The water vapor sorption of the crystal modifications according to the invention was investigated at a temperature of 25° C. on substance samples of about 12 to 16 mg using a DVS-1 Dynamic Vapour Sorption Analyser from Surface Measurement Systems. The measurements were carried out in a nitrogen atmosphere whose relative humidity was altered stepwise. The weight of the sample was recorded at each relative humidity after establishment of the equilibrium, which is when a change in weight of the sample no longer took place. For a series of increasing relative humidities, the water contents of the substance samples, which were determined from the change in weight compared with the starting weights, are indicated in percent.

[2] = Solubility investigations in water; format: physicochemical; details: for Total amount of substance that could be dissolved: in 2 ml of water at 20° C. to 25° C.; for Time to go into solution: portions of 50 to 100 mg stirred into 2.0 ml of water at room temperature
Method: The substance was introduced with stirring into 2.0 ml of water at room temperature in portions of 50 to 100 mg. It went into solution in the course of a few minutes with initial clumping. In this way, a total of up to 500 mg of substance could be dissolved in 2 ml of water at 20° C to 25° C.
100 mg of the substance were introduced into 2.0 ml of water, a readily stirrable suspension being formed. […] On warming the suspension to 35° C. to 37° C., the substance went into solution within 20 minutes.
The substance was introduced with stirring into 2.0 ml of water at room temperature in portions of 50 to 100 mg. After introduction, the substance was initially present as a granular, readily stirrable solid that then went into solution in the course of a few minutes. In this way, a total of up to 360 mg of substance could be dissolved in 2 ml of water at 20° C. to 25° C.
The substance was introduced with stirring into 2.0 ml of water at room temperature in portions of 50 to 100 mg. It went into solution in the course of a few minutes with initial clumping. In this way, a total of up to 620 mg of substance could be dissolved in 2 ml of water at 20° C. to 25° C.

Water content ([1]; relative humidity 18.4 %): 0.30%
Water content ([1]; relative humidity 39.6 %): 0.65%
Water content ([1]; relative humidity 61.0 %): 1.39%
Water content ([1]; relative humidity 81.1 %): 2.04%
Water content ([1]; relative humidity 91.0 %): 5.72%
Total amount of substance that could be dissolved [2]: up to 500 mg
Time to go into solution [2]: a few minutes
SMILES: CNC(=S)[N-]S(=O)(=O)c1cc(CCNC(=O)c2cc(Cl)ccc2OC)ccc1OC.[Na+] [Crystal Modification 1, sodium salt of 5-chloro-2-methoxy-N-(2-(4-methoxy-3-methylaminothiocarbonylaminosulfonylphenyl)ethyl)benzamide]

Water content ([1]; relative humidity 18.5 %): 0.04%
Water content ([1]; relative humidity 39.9 %): 0.06%
Water content ([1]; relative humidity 61.5 %): 0.08%
Water content ([1]; relative humidity 81.9 %): 0.10%
Water content ([1]; relative humidity 91.7 %): 0.13%
State of solution on cooling ([2]; 100 mg in 2.0 ml of water, cooled from 35° C. to 37° C. to 20° C. to 25° C.): remained clearly dissolved
Time to go into solution on warming ([2]; 100 mg in 2.0 ml of water, suspension warmed to 35° C. to 37° C.): ≤ 20 min
Dissolution of 100 mg in 2.0 ml of water ([2]; after stirring at 20° C. to 25° C. for 2 h): a clear solution was still not formed
SMILES: CNC(=S)[N-]S(=O)(=O)c1cc(CCNC(=O)c2cc(Cl)ccc2OC)ccc1OC.[Na+] [Crystal Modification 2, sodium salt of 5-chloro-2-methoxy-N-(2-(4-methoxy-3-methylaminothiocarbonylaminosulfonylphenyl)ethyl)benzamide]

Water content ([1]; relative humidity 18.7 %): 0.06%
Water content ([1]; relative humidity 40.1 %): 0.21%
Water content ([1]; relative humidity 61.4 %): 0.38%
Water content ([1]; relative humidity 81.3 %): 0.65%
Water content ([1]; relative humidity 91.0 %): 0.79%
Total amount of substance that could be dissolved [2]: up to 360 mg
Time to go into solution [2]: a few minutes
SMILES: CNC(=S)[N-]S(=O)(=O)c1cc(CCNC(=O)c2cc(Cl)ccc2OC)ccc1OC.[Na+] [Crystal Modification 3, sodium salt of 5-chloro-2-methoxy-N-(2-(4-methoxy-3-methylaminothiocarbonylaminosulfonylphenyl)ethyl)benzamide]

Total amount of substance that could be dissolved [2]: up to 620 mg
Time to go into solution [2]: a few minutes
SMILES: CNC(=S)[N-]S(=O)(=O)c1cc(CCNC(=O)c2cc(Cl)ccc2OC)ccc1OC.[Na+] [Crystal Modification 4, sodium salt of 5-chloro-2-methoxy-N-(2-(4-methoxy-3-methylaminothiocarbonylaminosulfonylphenyl)ethyl)benzamide]
